# Measurements reported in paper PMC9865890, “N-Derivatives of (Z)-Methyl 3-(4-Oxo-2-thioxothiazolidin-5-ylidene)methyl)-1H-indole-2-carboxylates as Antimicrobial Agents—In Silico and In Vitro Evaluation” (Pharmaceuticals, 2023).
# Read-outs that look alike come from different tables or passages of the source.
# Tests used:
# [1] = test system: Bacillus cereus (clinical isolate); test: Antibacterial microdilution (MIC/MBC); type: cell-based; conditions: Bacillus cereus, B.c. (B. cereus); for MIC: read-out: MIC
# Method: (§1) The synthesized compounds (Table 1) were evaluated for their antibacterial activity against a panel of eight species using a microdilution method with ampicillin and streptomycin as reference drugs. […] The order of activity can be presented as: 8 > 11 > 2 > 1 > 12 > 3 > 17 > 7 > 5 > 13 > 14 > 16 > 9 > 4 = 6 > 15 > 10. […] Cloacae. […] The most sensitive bacteria appeared to be En. cloacae, while E. coli was the most resistant one, followed by M. flavus.
# (§2) The following Gram-negative bacteria: Escherichia coli (ATCC 35210), Enterobacter cloacae (clinical isolate), Salmonella typhimurium (ATCC 13311), as well as Gram-positive bacteria: Listeria monocytogenes (NCTC 7973), Bacillus cereus (clinical isolate), and Staphylococcus aureus (ATCC 6538) were used. The organisms were obtained from the Mycological Laboratory, Department of Plant Physiology, Institute for Biological Research “Siniša Stankovic”, Belgrade, Serbia. The minimum inhibitory (MIC) and minimum bactericidal (MBC) concentrations were determined by the modified microdilution method, as previously reported.
# [2] = test system: Enterobacter cloacae (clinical isolate); test: Antibacterial microdilution (MIC/MBC); type: cell-based; conditions: Enterobacter cloacae, En.cl (En. cloacae); for MIC: read-out: MIC
# Method: as §1, §2
# [3] = test system: Escherichia coli (ATCC 35210); test: Antibacterial microdilution (MIC/MBC); type: cell-based; conditions: Escherichia coli, ATCC35210, E. coli; for MIC: read-out: MIC
# Method: as §1, §2
# [4] = test system: Listeria monocytogenes (NCTC 7973); test: Antibacterial microdilution (MIC/MBC); type: cell-based; conditions: Listeria monocytogenes, NCTC7973, L.m. (L. monocytogenes); for MIC: read-out: MIC
# Method: as §1, §2
# M. flavus = test: Antibacterial microdilution (MIC/MBC); type: cell-based; conditions: Micrococcus flavus; M.f. (M. flavus)
# Method: as §1, §2
# P. aeruginosa = test: Antibacterial microdilution (MIC/MBC); type: cell-based; conditions: Pseudomonas aeruginosa, P.a. (P. aeruginosa); for MIC: read-out: MIC
# Method: as §1, §2
# [5] = test system: Salmonella typhimurium (ATCC 13311); test: Antibacterial microdilution (MIC/MBC); type: cell-based; conditions: Salmonella enterica, S.t. (S. typhimurium); for MIC: read-out: MIC
# Method: as §1, §2
# [6] = test system: Staphylococcus aureus (ATCC 6538); test: Antibacterial microdilution (MIC/MBC); type: cell-based; conditions: Staphylococcus aureus, ATCC6538, S.a. (S. aureus); for MIC: read-out: MIC
# Method: as §1, §2
# A. ochraceus = test: Antifungal bioassay (MIC/MFC); type: cell-based; conditions: A.o. (A. ochraceus)
# Method: (§3) For the antifungal bioassays, six fungi were used: […] The organisms were obtained from the Mycological Laboratory, Department of Plant Physiology, Institute for Biological Research “Siniša Stankovic”, Belgrade, Serbia. All experiments were performed in duplicate.
# [7] = test system: Aspergillus fumigatus (ATCC 1022); test: Antifungal bioassay (MIC/MFC); type: cell-based; conditions: ATCC1022, A.f. (A. fumigatus)
# Method: as §3
# [8] = test system: Aspergillus niger (ATCC 6275); test: Antifungal bioassay (MIC/MFC); type: cell-based; conditions: ATCC6275, A.n. (A. niger)
# Method: as §3
# [9] = test system: Aspergillus versicolor (ATCC 11730); test: Antifungal bioassay (MIC/MFC); type: cell-based; conditions: ATCC11730, A.v. (A. versicolor)
# Method: as §3
# P. ochrochloron = test: Antifungal bioassay (MIC/MFC); type: cell-based; conditions: for MIC: P.o. (P. ochrochloron; text: P. ochramensis); for MFC: P.o. (P. ochrochloron)
# Method: as §3
# [10] = test system: Penicillium funiculosum (ATCC 36839); test: Antifungal bioassay (MIC/MFC); type: cell-based; conditions: Talaromyces funiculosus, ATCC36839; P.f. (P. funiculosum)
# Method: as §3
# [11] = test system: Trichoderma viride (IAM 5061); test: Antifungal bioassay (MIC/MFC); type: cell-based; conditions: T.v. (T. viride)
# Method: as §3
# [12] = test system: Penicillium verrucosum var. cyclopium (food isolate); test: Antifungal bioassay (MIC/MFC); type: cell-based
# Method: For the antifungal bioassays, six fungi were used: Aspergillus niger (ATCC 6275), Aspergillus fumigatus (ATCC 1022), Aspergillus versicolor (ATCC 11730), Penicillium funiculosum (ATCC 36839), Trichoderma viride (IAM 5061), and Penicillium verrucosum var. cyclopium (food isolate). The organisms were obtained from the Mycological Laboratory, Department of Plant Physiology, Institute for Biological Research “Siniša Stankovic”, Belgrade, Serbia. All experiments were performed in duplicate.
# [13] = Aspergillus ochraceus, read-out: MIC
# [14] = Penicillium ochrochloron, read-out: MIC
# [15] = Trichoderma viride, IAM5061, read-out: MIC
SMILES,MBC [1] [µg/mL],MIC [1] [µg/mL],MBC [2] [µg/mL],MIC [2] [µg/mL],MBC [3] [µg/mL],MIC [3] [µg/mL],MBC [4] [µg/mL],MIC [4] [µg/mL],MBC (M. flavus) [µg/mL],MIC (M. flavus) [µg/mL],MBC (P. aeruginosa) [µg/mL],MIC (P. aeruginosa) [µg/mL],MBC [5] [µg/mL],MIC [5] [µg/mL],MBC [6] [µg/mL],MIC [6] [µg/mL],MFC (A. ochraceus; Aspergillus ochraceus) [µg/mL],MIC (A. ochraceus; [13]) [µg/mL],MFC [7] [µg/mL],MIC [7] [µg/mL],also measured
"COC(=O)c1[nH]c2ccc(F)cc2c1/C=C1\SC(=S)N(C)C1=O [Compound 15, (Z)-methyl 5-fluoro-3-((3-methyl-4-oxo-2-thioxothiazolidin-5-ylidene)methyl)-1H-indole-2-carboxylate]",60 ± 6,30 ± 10,60 ± 6,30 ± 10,60 ± 6,45 ± 3,60 ± 6,45 ± 3,60 ± 6,45 ± 3,60 ± 6,30 ± 10,60 ± 6,45 ± 3,30 ± 10,22 ± 5,15 ± 3,8 ± 0.6,30 ± 10,15 ± 3,"MFC [8]: 15 ± 3 µg/mL; MIC [8]: 8 ± 0.6 µg/mL; MFC [9]: 15 ± 3 µg/mL; MIC [9]: 8 ± 0.6 µg/mL; MIC (P. ochrochloron): 8 ± 0.6 µg/mL; MFC (P. ochrochloron; Penicillium ochrochloron): 15 ± 3 µg/mL; MIC (P. ochrochloron; [14]): 8 µg/mL; MFC [10]: 15 ± 3 µg/mL; MIC [10]: 8 ± 0.6 µg/mL; MIC [11]: 8 ± 0.6 µg/mL; MFC ([11]; Trichoderma viride, IAM5061): 15 ± 3 µg/mL; MIC [11, 15]: 8 µg/mL; MFC [12]: 15 ± 3 µg/mL; MIC [12]: 8 ± 0.6 µg/mL; melting point: 234 to 244 °C"
"COC(=O)c1[nH]c2ccc(F)cc2c1/C=C1\SC(=S)N(CCCC(=O)O)C1=O [Compound 9, (Z)-4-(5-((5-fluoro-2-(methoxycarbonyl)-1H-indol-3-yl)methylene)-4-oxo-2-thioxothiazolidin-3-yl)butanoic acid]",60 ± 6,30 ± 10,60 ± 6,30 ± 10,60 ± 6,30 ± 10,60 ± 6,30 ± 10,60 ± 6,30 ± 10,60 ± 6,30 ± 10,60 ± 6,30 ± 10,60 ± 6,30 ± 10,8 ± 0.6,4,120 ± 40,90 ± 3,"MIC (A. ochraceus): 4 ± 1 µg/mL; MFC [8]: 30 ± 10 µg/mL; MIC [8]: 15 ± 3 µg/mL; MFC [9]: 30 ± 10 µg/mL; MIC [9]: 15 ± 3 µg/mL; MFC (P. ochrochloron; Penicillium ochrochloron): 30 ± 10 µg/mL; MIC (P. ochrochloron; [14]): 15 ± 3 µg/mL; MFC [10]: 30 ± 10 µg/mL; MIC [10]: 15 ± 3 µg/mL; MIC [11]: 8 ± 0.6 µg/mL; MFC ([11]; Trichoderma viride, IAM5061): 15 ± 3 µg/mL; MIC [11, 15]: 8 µg/mL; MFC [12]: 15 ± 3 µg/mL; MIC [12]: 22 ± 5 µg/mL; melting point: 192 to 193 °C"
"COC(=O)c1[nH]c2cc(OC)ccc2c1/C=C1\SC(=S)N(c2cccc(F)c2)C1=O [Compound 13, (Z)-methyl 3-((3-(3-fluorophenyl)-4-oxo-2-thioxothiazolidin-5-ylidene)methyl)-6-methoxy-1H-indole-2-carboxylate]",60 ± 6,30 ± 10,30 ± 10,15 ± 9,60 ± 6,45 ± 3,60 ± 6,30 ± 10,60 ± 6,45 ± 3,60 ± 6,30 ± 10,60 ± 6,30 ± 10,30 ± 10,15 ± 9,15 ± 3,8 ± 0.6,120 ± 40,60 ± 6,MFC [8]: 30 ± 10 µg/mL; MIC [8]: 15 ± 3 µg/mL; MFC [9]: 30 ± 10 µg/mL; MIC [9]: 15 ± 3 µg/mL; MFC (P. ochrochloron; Penicillium ochrochloron): 30 ± 10 µg/mL; MIC (P. ochrochloron; [14]): 15 ± 3 µg/mL; MFC [10]: 30 ± 10 µg/mL; MIC [10]: 15 ± 3 µg/mL; MFC [12]: 30 ± 10 µg/mL; MIC [12]: 15 ± 3 µg/mL; melting point: 238 to 240 °C
